Measurements: paper PMC7376037, “Recombinant expression, purification and PEGylation of Paneth cell peptide (cryptdin-2) with value added attributes against Staphylococcus aureus” (Scientific Reports, 2020)
Values after ≈ are worked out from the molar mass of the structure shown. Read-outs that look alike come from different tables or passages of the source. Bridge positions count the residues as written; N and C are the ends. Peptide text beside a SMILES is read from it.

Tests used:
[1] = test system: Staphylococcus aureus; assay: Radial diffusion (agar well diffusion) assay; format: cell-based, Staphylococcus aureus (ATCC 9144); settings: peptide 100 µg/well, overnight 37 °C, S. aureus
Protocol: Antibacterial activity of all the cryptdin preparations was evaluated by performing radial diffusion assay. […] Following the addition of 20 μL aliquots of the cryptdin-2 preparations along with control sample (PBS) into a series of wells made in the gel, the plates were incubated overnight at 37 °C. The samples were examined for zone of clearance around the wells indicating inhibition of bacterial growth.

[2] = Serum stability (antimicrobial activity after incubation in mice sera); format: in vitro ADME; settings: for reduction of antibacterial activity after 3 h incubation with mice sera: peptide at its MIC, 50% mice serum, 37 °C, read-out micro broth dilution against S. aureus, repeated thrice in triplicates
Protocol: The stability of purified peptide preparations in mice sera was evaluated as described previously[15] with some modifications. Briefly, 80 µL of 50% serum was added to each well of 96-well plates followed by addition of 10 µL of bacterial suspension. The total CFU/mL value was adjusted to be identical in all the samples. Each peptide preparation (10 μL) was added to different wells and incubated at 37 °C for 0, 3, and 6 h respectively. The antimicrobial activities were assessed by performing micro broth dilution assay as described above for determination of MIC against S. aureus. The sera of mice were confirmed for absence of any intrinsic antimicrobial activity prior to performing the test.

[3] = test system: Staphylococcus aureus; format: cell-based; settings: for MIC in combination, Peptides: peptide concentration in combination with gentamicin, checkerboard, S. aureus
Protocol: To investigate the interactive effect of these recombinant peptides, a checkerboard assay[41] was performed using a clinically prescribed antibiotic (gentamicin) as the other antibacterial agent. The assay employs the same methodology followed for determination of the MIC as described above. MIC values of peptide and gentamicin were used in this assay in order to calculate the FIC values. All the three peptide variants and gentamicin were tried in different ratios to evaluate interaction of the agents in combination against S. aureus. The same was determined on the basis of the FIC index, wherein an index of ≤ 0.5 indicated a synergistic effect and an index > 0.5 and ≤ 2 indicated an additive or indifferent nature of interaction respectively and lastly, the interaction was confirmed to be antagonistic when the index was > 2.0.
FIC index is expressed as: FIC Index=A1/A+B1/B where A1 and B1 are the respective concentrations of gentamicin and peptide producing the combined MICs, while A and B are the MICs of the individual agents.

[4] = test system: RAW 264.7 cell lines; assay: Cell cytotoxicity assay (AlamarBlue); format: cell-based, murine; settings: 24 h
Protocol: The cytotoxicity of recombinant peptide variants towards RAW 264.7 cell lines was assessed using AlamarBlue (Resazurin), a cell metabolic activity reagent (Sigma)[40]. The log phase cells diluted (2 × 10^5/well) in Dulbecco's Modified Eagle Medium (DMEM) containing 10% fetal bovine serum (FBS) were cultured in 96-well microtiter plates and incubated for 12 h under 5% CO2 conditions at 37 °C. […] Following this, 0.02% Alamar blue reagent was added to the cells and incubated for 8 h. Fluorescence was measured with excitation wavelength at 545 nm and emission wavelength at 590 nm. The percent difference between treated and un-treated cells was calculated to determine percent cytotoxicity.

[5] = test system: Staphylococcus aureus; assay: microbe, parasite or virus in culture; format: cell-based, Staphylococcus aureus (ATCC 9144)
Protocol: To determine MIC values of the peptide preparations, micro broth dilution assay was performed. Briefly, S. aureus cells were grown to mid-exponential phase and diluted to a concentration of approximately 10^7 CFU/mL. Different concentrations of AMP preparations were separately added to wells containing bacterial suspension (approximately 10^6 CFU/mL) in sterile 96-well flat-bottom plate. After incubation at 37 °C, cell growth inhibition was assessed by measuring the absorbance at 595 nm on microplate reader (BioTek). MIC was recorded as the lowest concentration of the peptide preparation at which no visible growth was observed.

[6] = cited from earlier work
Source text: However, lesser adverse effect was observed on cell membrane when treated with the PEGylated peptide. These findings correlated well with the increased MIC of the peptide as observed above. It is highly probable that site-specific mutation followed by PEG-conjugat ...

Compound: CSCC[C@@H]1NC(=O)[C@H](CCCNC(=N)N)NC(=O)[C@H](CS)NC(=O)[C@H](CCCNC(=N)N)NC(=O)[C@H](CCCNC(=N)N)NC(=O)[C@H](CCCCN)NC(=O)[C@@H]2CSSC[C@@H]3NC(=O)[C@H](CC(C)C)NC(=O)[C@H]([C@@H](C)O)NC(=O)[C@H](Cc4ccc(O)cc4)NC(=O)[C@H](CCSC)NC(=O)[C@H](CC(C)C)NC(=O)[C@H](Cc4c[nH]cn4)NC(=O)CNC(=O)[C@H](CCCCN)NC(=O)[C@H](CCCNC(=N)N)NC(=O)[C@H](CSSC[C@H](NC(=O)[C@H](Cc4ccc(O)cc4)NC(=O)[C@@H](NC(=O)[C@@H](NC(=O)[C@H](CC(C)C)NC(=O)[C@H](CC(=O)O)NC(=O)[C@H](CCCNC(=N)N)NC(=O)[C@@H](N)CC(C)C)C(C)C)CSSC[C@@H](C(=O)N[C@@H](CCCNC(=N)N)C(=O)O)NC3=O)C(=O)N[C@@H](CCCNC(=N)N)C(=O)N[C@@H]([C@@H](C)O)C(=O)N[C@@H](CCCNC(=N)N)C(=O)NCC(=O)N2)NC(=O)[C@H]([C@@H](C)O)NC(=O)CNC(=O)[C@H](CC(N)=O)NC1=O [E18C cryptdin-2] (H-LRDLVCYCRTRGCKRRCRMNGTCRKGHLMYTLCCR-OH; disulfide 6-34, 8-23, 13-33)
- antimicrobial activity, zone of growth inhibition [1]: potent antimicrobial activity
- MIC after incubation with serum, 0 h [2]: 20 µg/mL
- MIC after incubation with serum, 3 h [2]: 40 µg/mL
- MIC after incubation with serum, 6 h [2]: 60 µg/mL
- reduction of antibacterial activity after 3 h incubation with mice sera [2]: 50%
- FIC indices [3]: 0.375
- MIC in combination, Peptides [3]: 2.5 µg/mL
- cell viability [4]: ~65%

Compound: CNC(C)C1CCC(N)C(OC2C(N)CC(N)C(OC3OCC(C)(O)C(NC)C3O)C2O)O1 (stereo not shown) [Gentamicin, gentamicin, reference compound]
- MIC ([5]; agent alone against Staphylococcus aureus, Table 1, read-out: MIC): 0.097 µg/mL (≈ 0.203 µM)

Compound: CSCC[C@@H]1NC(=O)[C@H](CCCNC(=N)N)NC(=O)[C@H](CCC(=O)O)NC(=O)[C@H](CCCNC(=N)N)NC(=O)[C@H](CCCNC(=N)N)NC(=O)[C@H](CCCCN)NC(=O)[C@@H]2CSSC[C@@H]3NC(=O)[C@H](CC(C)C)NC(=O)[C@H]([C@@H](C)O)NC(=O)[C@H](Cc4ccc(O)cc4)NC(=O)[C@H](CCSC)NC(=O)[C@H](CC(C)C)NC(=O)[C@H](Cc4c[nH]cn4)NC(=O)CNC(=O)[C@H](CCCCN)NC(=O)[C@H](CCCNC(=N)N)NC(=O)[C@H](CSSC[C@H](NC(=O)[C@H](Cc4ccc(O)cc4)NC(=O)[C@@H](NC(=O)[C@@H](NC(=O)[C@H](CC(C)C)NC(=O)[C@H](CC(=O)O)NC(=O)[C@H](CCCNC(=N)N)NC(=O)[C@@H](N)CC(C)C)C(C)C)CSSC[C@@H](C(=O)N[C@@H](CCCNC(=N)N)C(=O)O)NC3=O)C(=O)N[C@@H](CCCNC(=N)N)C(=O)N[C@@H]([C@@H](C)O)C(=O)N[C@@H](CCCNC(=N)N)C(=O)NCC(=O)N2)NC(=O)[C@H]([C@@H](C)O)NC(=O)CNC(=O)[C@H](CC(N)=O)NC1=O [cryptdin-2] (H-LRDLVCYCRTRGCKRRERMNGTCRKGHLMYTLCCR-OH; disulfide 6-34, 8-23, 13-33)
- antimicrobial activity, zone of growth inhibition [1]: potent antimicrobial activity
- MIC after incubation with serum, 0 h [2]: 20 µg/mL
- MIC after incubation with serum, 3 h [2]: 40 µg/mL
- MIC after incubation with serum, 6 h [2]: 70 µg/mL
- reduction of antibacterial activity after 3 h incubation with mice sera [2]: 50%
- MIC [5]: 20 µg/mL (≈ 4.71 µM)
- MIC in combination, Peptides [3]: 2.5 µg/mL
- cell viability [4]: approximately 70%

Compound: magainin 2
- decrease in antimicrobial activity after PEG conjugation ([6]; 5 kDa PEG at N-terminal end): fourfold

Compound: nisin
- antimicrobial activity after PEGylation ([6]; PEGylation via amine group of the lysine side-chain): inactive conjugate
